Results from ChEMBL document CHEMBL1201862, “PubChem BioAssay data set” (2004).
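Interpolation was linear, between the two tested concentrations surrounding the appropriate level; five concentrations were tested over 48 hours in 96-well plates. At the GI50, growth is halved.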 Calls of active or inactive are those of the source. Rule as the data show it: active = GI50 up to about 1.1 µM and inactive = higher.

What was measured:
Assay in all cases: NCI tumour cell line growth inhibition, 48 h
NCI-H460 = system: NCI-H460
T47D = system: T47D
MCF7 = system: MCF7
MDA-MB-231 = system: MDA-MB-231
K562 = system: K562
OVCAR-8 = system: OVCAR-8
MDA-MB-435 = system: MDA-MB-435
CAKI-1 = system: CAKI-1
ACHN = system: ACHN
COLO 205 = system: COLO 205
786-0 = system: 786-0
TK-10 = system: TK-10
Malme-3M = system: Malme-3M
IGROV-1 = system: IGROV-1
DU-145 = system: DU-145
MOLT-4 = system: MOLT-4
HOP-92 = system: HOP-92
Hs-578T = system: Hs-578T
SF-268 = system: SF-268
SK-MEL-2 = system: SK-MEL-2

Measured: GI50

COC(=O)C1=C(C)NC(C)=C([N+](=O)[O-])C1c1cccc(N=O)c1 (stereo not given)
inactive: NCI-H460 16.5 µM | T47D 12.1 µM | MCF7 17.4 µM | MDA-MB-231 18.3 µM | K562 4.47 µM | OVCAR-8 16.3 µM | MDA-MB-435 12.7 µM | CAKI-1 7.96 µM | ACHN 12.3 µM | COLO 205 15.7 µM | 786-0 14.2 µM | TK-10 12.8 µM | Malme-3M 12.5 µM | IGROV-1 16 µM | DU-145 15.2 µM | MOLT-4 3.18 µM | HOP-92 2.83 µM | Hs-578T 15.2 µM | SF-268 17.5 µM | SK-MEL-2 18.2 µM
